Our source for the IC50 values is patent US10894784B2, “Heteroarylbenzimidazole compounds” (BAYER PHARMA AKTIENGESELLSCHAFT, priority 2015, dated 2021).

pIC50: −log10 of the molar value. Read-outs that look alike come from different tables or passages of the source.

This experiment deals with TBK1 (Homo sapiens (Human), UniProt Q9UHD2). Kind of experiment: TBK1 low ATP kinase assay (in vitro assay 1). The experiment is classed as biochemical.
[1] abbreviates: in vitro assay 1, read-out: TBK1 low ATP kinase assay IC50.

Sequence of TBK1 (Q9UHD2 whole entry): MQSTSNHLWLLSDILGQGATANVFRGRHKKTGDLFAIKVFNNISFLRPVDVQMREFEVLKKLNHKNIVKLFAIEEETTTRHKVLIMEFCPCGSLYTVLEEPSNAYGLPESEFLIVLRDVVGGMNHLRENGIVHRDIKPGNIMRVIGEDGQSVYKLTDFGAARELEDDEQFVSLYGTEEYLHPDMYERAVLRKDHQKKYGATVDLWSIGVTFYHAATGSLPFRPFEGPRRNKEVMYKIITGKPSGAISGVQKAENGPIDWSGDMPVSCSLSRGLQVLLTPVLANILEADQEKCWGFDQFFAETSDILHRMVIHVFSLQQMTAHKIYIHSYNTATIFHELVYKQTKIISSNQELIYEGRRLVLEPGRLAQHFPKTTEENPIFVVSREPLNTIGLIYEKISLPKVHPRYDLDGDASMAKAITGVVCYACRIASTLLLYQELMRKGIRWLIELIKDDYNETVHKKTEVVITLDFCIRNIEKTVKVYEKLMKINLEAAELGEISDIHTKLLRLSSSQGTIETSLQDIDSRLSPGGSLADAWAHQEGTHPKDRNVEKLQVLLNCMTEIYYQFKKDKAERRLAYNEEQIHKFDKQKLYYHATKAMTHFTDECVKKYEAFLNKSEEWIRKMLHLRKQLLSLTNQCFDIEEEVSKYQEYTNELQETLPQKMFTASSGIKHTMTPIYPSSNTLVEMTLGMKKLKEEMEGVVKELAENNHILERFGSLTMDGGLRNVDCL

A word on the pIC50: it is the IC50 on a negative log10 scale, so that one unit is a factor of ten. As to `COc1cc(-c2ccc3nc(Nc4cc(CN5CCN(C(=O)C6CCC6)CC5)ccn4)[nH]c3c2)c(F)cn1` [Example 03.03, cyclobutyl{4-[(2-{[6-(5-fluoro-2-methoxypyridin-4-yl)-1H-benzimidazol-2-yl]amino}pyridin-4-yl)methyl]piperazin-1-yl}methanone], the pIC50 under setting [1] was 6.55.
Still for that read-out and setting: under `COc1ccccc1N1CCN(Cc2ccnc(Nc3nc4ccc(-c5nc(C)no5)cc4[nH]3)c2)CC1` [Example 101.07, N-(4-{[4-(2-methoxyphenyl)piperazin-1-yl]methyl}pyridin-2-yl)-6-(3-methyl-1,2,4-oxadiazol-5-yl)-1H-benzimidazol-2-amine] stands 6.77; under `COc1ccc(-c2ccc3nc(Nc4cc(CN5CCN(C(=O)C6CC6)CC5)ccn4)[nH]c3c2)cn1` [Example 13.02, cyclopropyl{4-[(2-{[6-(6-methoxypyridin-3-yl)-1H-benzimidazol-2-yl]amino}pyridin-4-yl)methyl]piperazin-1-yl}methanone], 6.78; under `Cc1noc(-c2ccc3nc(Nc4cc(CN5CCN(c6ccccc6F)CC5)ccn4)[nH]c3c2)n1` [Example 101.02, N-(4-{[4-(2-fluorophenyl)piperazin-1-yl]methyl}pyridin-2-yl)-6-(3-methyl-1,2,4-oxadiazol-5-yl)-1H-benzimidazol-2-amine], 6.17.
Same read-out and setting: under `CCOc1nccc(-c2ccc3nc(Nc4cc(C(C)N5CCN(C(=O)CC(F)(F)F)CC5)ccn4)[nH]c3c2)n1` (single isomer, unassigned) [Example 26.03.01.A, 1-{4-[(1R or 1S)-1-(2-{[6-(2-ethoxypyrimidin-4-yl)-1H-benzimidazol-2-yl]amino}pyridin-4-yl)ethyl]piperazin-1-yl}-3,3,3-trifluoropropan-1-one] stands 8.53.
The same measure, in the same setting: under `CC(c1ccnc(Nc2nc3ccc(-c4cc(N5CCCC5)ncn4)cc3[nH]2)c1)N1CCN(C(=O)OC(C)(C)C)CC1` (single isomer, unassigned) [Example 117.01, tert-butyl 4-{(1R or 1S)-1-[2-({6-[6-(pyrrolidin-1-yl)pyrimidin-4-yl]-1H-benzimidazol-2-yl}amino)pyridin-4-yl]ethyl}piperazine-1-carboxylate] stands 8.70.
Turning to `CCNc1cc(-c2ccc3nc(Nc4cc(CN5CCN(C(=O)OC(C)(C)C)CC5)ccn4)[nH]c3c2)ncn1` [Example 149.01, tert-butyl 4-{[2-({6-[6-(ethylamino)pyrimidin-4-yl]-1H-benzimidazol-2-yl}amino)pyridin-4-yl]methyl}piperazine-1-carboxylate], the pIC50 under setting [1] was 8.33.
The same measure, in the same setting: in the case of `CC(c1ccnc(Nc2nc3ccc(-c4cnn(C[C@@H]5CC5(Cl)Cl)c4)cc3[nH]2)c1)N1CCN(C(=O)CC(F)(F)F)CC1` (single isomer, unassigned) [Example 170.02, 1-{4-[(1R or 1S)-1-(2-{[6-(1-{[(1RS)-2,2-dichlorocyclopropyl]methyl}-1H-pyrazol-4-yl)-1H-benzimidazol-2-yl]amino}pyridin-4-yl)ethyl]piperazin-1-yl}-3,3,3-trifluoropropan-1-one] it was 8.28.
`Cc1noc(-c2ccc3nc(Nc4cc(C(C)N5CCN(C(=O)CC(F)(F)F)CC5)ccn4)[nH]c3c2)n1` (single isomer, unassigned) [Example 16.06.02.A, 3,3,3-trifluoro-1-{4-[(1R or 1S)-1-(2-{[6-(3-methyl-1,2,4-oxadiazol-5-yl)-1H-benzimidazol-2-yl]amino}pyridin-4-yl)ethyl]piperazin-1-yl}propan-1-one] had a pIC50 (TBK1 low ATP kinase assay IC50, in vitro assay 1) of 6.98.
`O=C(CC(F)(F)F)N1CCN(Cc2ccnc(Nc3nc4ccc(-c5cc(C6CC6)ncn5)cc4[nH]3)c2)CC1` [Example 76.01, 1-{4-[(2-{[6-(6-cyclopropylpyrimidin-4-yl)-1H-benzimidazol-2-yl]amino}pyridin-4-yl)methyl]piperazin-1-yl}-3,3,3-trifluoropropan-1-one]: the pIC50 under setting [1] is 8.49.
